Converted amounts (≈) assume the structure as drawn. “And” between values parts separate entries of the source, which are not always exact repeats. Equal values may be shown once.
How the values were obtained:
[1] = tested on: E. faecium; assay: MIC susceptibility testing, E. faecium; assay type: cell-based
Procedure: (§1) Susceptibility testing for all aerobic organisms with the exception of Streptococcus pneumoniae was performed by two-fold serial antibiotic dilutions in Mueller-Hinton Broth supplemented with 50 μg/ml Ca^2+ unless otherwise noted. Susceptibility testing for S. pneumoniae was performed by two-fold serial antibiotic dilutions in Brain-Heart-Infusion Broth supplemented with 50 μg/ml Ca^2+ unless otherwise noted. Actively growing broth cultures were diluted to contain […] by adjusting to an OD600 of 0.2-0.3. They were then diluted a further 1:100 in fresh sterile broth. The assays were performed in duplicate in sterile 96-well microtitre plates in a total volume of 200 μl (160 μl broth, 20 μl antimicrobial agent, 20 μl inoculum) in a concentration range from 64 μg/ml to 0.06 μg/ml. […] Clinical isolates of Clostridium difficile were tested in Wilkins-Chalgren Anaerobe Agar under anaerobic conditions. In all cases, vancomycin was used as a reference antibiotic

[2] = tested on: S. aureus; assay: MIC susceptibility testing, S. aureus; assay type: cell-based, Staphyloccus aureus
Procedure: as §1

[3] = Stability in simulated gastric fluid (SGF); assay type: in vitro ADME; conditions: 37° C., analytical HPLC
Procedure: (§2) Nisin, mersacidin, compound I and compound III were tested for their susceptibility towards enzymatic digestion in the stomach. Nisin, mersacidin and compound III were tested for their susceptibility towards enzymatic digestion in the intestine. The SGF and SIF were based on the standard USP solutions for simulated gastric and simulated intestinal fluids and their activity confirmed against Bovine Serum Albumin (Hilger et al, Clin. Exp. Immunol. 2001, 123, 387-94). The compounds were incubated in SGF or SIF at 37° C. and their concentrations quantified by analytical HPLC (UV detection at 210 nm). The potential degradation of each compound was also monitored qualitatively by measuring in vitro antibacterial activity against Micrococcus luteus.

[4] = tested on: S. constellatus; assay: MIC susceptibility testing, S. constellatus; assay type: cell-based; conditions: S. constellatus GRL05065; Viridans streptococci; Table 3
Procedure: as §1

[5] = tested on: Bifidobacterium adolescentis; assay: MIC against intestinal flora organisms, Bifidobacterium adolescentis; assay type: cell-based; conditions: Bifidobacterium adolescentis NCTC 11814; Table 5
[6] = tested on: S. epidermidis; assay: MIC susceptibility testing, S. epidermidis; assay type: cell-based, Staphylococcus epidermidis
Procedure: as §1

[7] = Stability in simulated intestinal fluid (SIF); assay type: in vitro ADME; conditions: 37° C., analytical HPLC
Procedure: as §2
The rapid degradation of nisin in this medium supports the observation that the clinical utility of nisin for the treatment of colonic infections is very limited unless the compound can be protected from degradative enzymes by means of careful formulation.

[8] = tested on: Bacteroides thetaiotaomicron; assay: MIC against intestinal flora organisms, Bacteroides thetaiotaomicron; assay type: cell-based; conditions: Bacteroides thetaiotaomicron NCTC 10582; Table 5
[9] = tested on: Clostridium difficile; assay: MIC, Clostridium difficile in Wilkins-Chalgren Anaerobe Agar; assay type: cell-based; conditions: Table 4
Procedure: as §1

[10] = tested on: S. oralis; assay: MIC susceptibility testing, S. oralis; assay type: cell-based; conditions: S. oralis 7862912.1; Viridans streptococci; Table 3
Procedure: as §1

[11] = tested on: Bacteroides fragilis; assay: MIC against intestinal flora organisms, Bacteroides fragilis; assay type: cell-based; conditions: Bacteroides fragilis NCTC 9343; Table 5
[12] = tested on: S. mitis; assay: MIC susceptibility testing, S. mitis; assay type: cell-based; conditions: Viridans streptococci, Table 3
Procedure: as §1

[13] = tested on: S. pneumoniae; assay: MIC susceptibility testing, S. pneumoniae (Brain-Heart-Infusion Broth); assay type: cell-based, Streptococcus pneumoniae; conditions: S. pneumoniae R6; Table 2
Procedure: as §1

[14] = tested on: M. luteus; assay: MIC susceptibility testing, M. luteus; assay type: cell-based; conditions: M. luteus 4698; Table 2
Procedure: as §1

## CCC(C)[C@@H]1NC(=O)[C@H](C(C)C)NC(=O)[C@H]2NC(=O)CNC(=O)[C@@H]3CS[C@@H](C)[C@@H](NC(=O)[C@H]4CSC[C@H](N)C(=O)N[C@@H](CO)C(=O)NCC(=O)N[C@@H](Cc5c[nH]c6ccccc56)C(=O)N[C@@H](C(C)C)C(=O)N4)C(=O)N[C@@H](CC(C)C)C(=O)N[C@@H](C(=O)N[C@@H](C(C)CC)C(=O)N[C@@H](CCC(=O)O)C(=O)N3)[C@H](C)SC[C@H](NC1=O)C(=O)N[C@@H](C)C(=O)N[C@H](C(=O)NCCO)C[S+]([O-])[C@H]2C (some centres unmarked) [Compound III, Actagardine N-[2-ethanolamine]monocarboxamide]
[1]; E. faecium 19579, Table 2
  MIC: 16 µg/mL (≈ 8.28 µM)
[1]; E. faecium 19579, Vancomycin sensitive enterococci, Table 3
  MIC: 16 µg/mL (≈ 8.28 µM)
[1]; E. faecium 7131121, Table 2
  MIC: 64 µg/mL (≈ 33.1 µM)
[1]; E. faecium 7634337, Vancomycin resistant enterococci, Table 3
  MIC: >32 µg/mL
[1]; E. faecium 7662769, Vancomycin resistant enterococci, Table 3
  MIC: >32 µg/mL
[1]; E. faecium 7865229, Vancomycin sensitive enterococci, Table 3
  MIC: >32 µg/mL
[1]; E. faecium 7865532, Vancomycin resistant enterococci, Table 3
  MIC: >32 µg/mL
[1]; E. faecium 9709024, Vancomycin resistant enterococci, Table 3
  MIC: >32 µg/mL
[1]; E. faecium 9710577, Vancomycin resistant enterococci, Table 3
  MIC: >32 µg/mL
[1]; E. faecium (VRE) (clinical isolate), Table 5, first isolate
  Minimal Inhibitory Concentration (MIC): 64 µg/mL
[1]; E. faecium (VRE) (clinical isolate), Table 5, second isolate
  Minimal Inhibitory Concentration (MIC): 4 µg/mL
[1]; E. faecium (VSE) ATCC 19579, Table 5
  Minimal Inhibitory Concentration (MIC): 16 µg/mL
[1]; E. faecium (VSE) ATCC 29212, Table 5
  Minimal Inhibitory Concentration (MIC): 4 µg/mL
[1]; E. faecium GRL05031, Vancomycin resistant enterococci, Table 3
  MIC: 4 µg/mL (≈ 2.07 µM)
[1]; E. faecium GRL05032, Vancomycin resistant enterococci, Table 3
  MIC: 4 µg/mL (≈ 2.07 µM)
[1]; E. faecium GRL05033, Vancomycin resistant enterococci, Table 3
  MIC: 8 µg/mL and 4 µg/mL
[1]; E. faecium GRL05034, Vancomycin resistant enterococci, Table 3
  MIC: 16 µg/mL (≈ 8.28 µM)
[1]; E. faecium GRL05035, Vancomycin resistant enterococci, Table 3
  MIC: 16 µg/mL (≈ 8.28 µM)
[2]; S. aureus 2, Vancomycin intermediate, Table 3
  MIC: 32 µg/mL (≈ 16.6 µM)
[2]; S. aureus 26, Vancomycin intermediate, Table 3
  MIC: 32 µg/mL (≈ 16.6 µM)
[2]; S. aureus 12232, Methicillin resistant, Table 3
  MIC: 8 µg/mL (≈ 4.14 µM)
[2]; S. aureus G15, Methicillin sensitive, Table 3
  MIC: >32 µg/mL
[2]; S. aureus G20, Methicillin sensitive, Table 3
  MIC: 32 µg/mL (≈ 16.6 µM)
[2]; S. aureus G22, Methicillin sensitive, Table 3
  MIC: 32 µg/mL (≈ 16.6 µM)
[2]; S. aureus G23, Methicillin sensitive, Table 3
  MIC: 32 µg/mL (≈ 16.6 µM)
[2]; S. aureus G28, Methicillin sensitive, Table 3
  MIC: 16 µg/mL (≈ 8.28 µM)
[2]; S. aureus G30, Methicillin sensitive, Table 3
  MIC: 32 µg/mL (≈ 16.6 µM)
[2]; S. aureus G31, Methicillin sensitive, Table 3
  MIC: >32 µg/mL
[2]; S. aureus G32, Methicillin sensitive, Table 3
  MIC: 32 µg/mL (≈ 16.6 µM)
[2]; S. aureus G33, Methicillin sensitive, Table 3
  MIC: 32 µg/mL (≈ 16.6 µM)
[2]; S. aureus G35, Methicillin sensitive, Table 3
  MIC: >32 µg/mL
[2]; S. aureus MI, Vancomycin intermediate, Table 3
  MIC: 32 µg/mL (≈ 16.6 µM)
[2]; S. aureus Mu3, Vancomycin intermediate, Table 3
  MIC: 32 µg/mL (≈ 16.6 µM)
[2]; S. aureus Mu50, Vancomycin intermediate, Table 3
  MIC: 32 µg/mL (≈ 16.6 µM)
[2]; S. aureus NJ, Vancomycin intermediate, Table 3
  MIC: >32 µg/mL
[2]; S. aureus R33, Table 2
  MIC: 16 µg/mL (≈ 8.28 µM)
[2]; S. aureus R34, Methicillin resistant, Table 3
  MIC: 8 µg/mL (≈ 4.14 µM)
[2]; S. aureus R36, Methicillin resistant, Table 3
  MIC: 16 µg/mL (≈ 8.28 µM)
[2]; S. aureus R39, Methicillin resistant, Table 3
  MIC: >32 µg/mL
[2]; S. aureus R40, Methicillin resistant, Table 3
  MIC: 32 µg/mL (≈ 16.6 µM)
[2]; S. aureus SH1000, Methicillin sensitive, Table 3
  MIC: 16 µg/mL (≈ 8.28 µM)
[2]; S. aureus SH1000, Table 2
  MIC: 8 µg/mL (≈ 4.14 µM)
[2]; S. aureus V99, Vancomycin intermediate, Table 3
  MIC: 16 µg/mL (≈ 8.28 µM)
[2]; S. aureus W71, Methicillin resistant, Table 3
  MIC: 32 µg/mL (≈ 16.6 µM)
[2]; S. aureus W74, Methicillin resistant, Table 3
  MIC: 32 µg/mL (≈ 16.6 µM)
[2]; S. aureus W96, Methicillin resistant, Table 3
  MIC: >32 µg/mL
[2]; S. aureus W97, Methicillin resistant, Table 3
  MIC: >32 µg/mL
[2]; S. aureus W98, Methicillin resistant, Table 3
  MIC: 32 µg/mL (≈ 16.6 µM)
[2]; S. aureus W99, Methicillin resistant, Table 3
  MIC: 32 µg/mL (≈ 16.6 µM)
[3]
  degradation in Simulated Gastric Fluid: did not show appreciable degradation
[4]
  MIC: >32 µg/mL
[5]
  Minimal Inhibitory Concentration (MIC): 32 µg/mL
[6]; S. epidermidis 7753921, Methicillin resistant, Table 3
  MIC: >32 µg/mL
[6]; S. epidermidis 7755298, Methicillin resistant, Table 3
  MIC: >32 µg/mL
[6]; S. epidermidis 7865688, Methicillin resistant, Table 3
  MIC: >32 µg/mL
[6]; S. epidermidis GRL05001, Methicillin sensitive, Table 3
  MIC: >32 µg/mL
[6]; S. epidermidis GRL05002, Methicillin sensitive, Table 3
  MIC: >32 µg/mL
[6]; S. epidermidis GRL05003, Methicillin sensitive, Table 3
  MIC: 32 µg/mL (≈ 16.6 µM)
[6]; S. epidermidis GRL05004, Methicillin sensitive, Table 3
  MIC: 32 µg/mL (≈ 16.6 µM)
[6]; S. epidermidis GRL05005, Methicillin sensitive, Table 3
  MIC: >32 µg/mL
[6]; S. epidermidis GRL05006, Methicillin sensitive, Table 3
  MIC: >32 µg/mL
[6]; S. epidermidis GRL05007, Methicillin sensitive, Table 3
  MIC: >32 µg/mL
[6]; S. epidermidis GRL05008, Methicillin sensitive, Table 3
  MIC: >32 µg/mL
[6]; S. epidermidis GRL05009, Methicillin sensitive, Table 3
  MIC: >32 µg/mL
[6]; S. epidermidis GRL05010, Methicillin sensitive, Table 3
  MIC: >32 µg/mL
[6]; S. epidermidis GRL05011, Methicillin resistant, Table 3
  MIC: >32 µg/mL
[6]; S. epidermidis GRL05013, Methicillin resistant, Table 3
  MIC: >32 µg/mL
[6]; S. epidermidis GRL05014, Methicillin resistant, Table 3
  MIC: >32 µg/mL
[6]; S. epidermidis GRL05015, Methicillin resistant, Table 3
  MIC: >32 µg/mL
[6]; S. epidermidis GRL05017, Methicillin resistant, Table 3
  MIC: >32 µg/mL
[6]; S. epidermidis GRL05019, Methicillin resistant, Table 3
  MIC: >32 µg/mL
[6]; S. epidermidis GRL05020, Methicillin resistant, Table 3
  MIC: 32 µg/mL (≈ 16.6 µM)
[6]; S. epidermis 11047, Table 2
  MIC: 32 µg/mL (≈ 16.6 µM)
[7]
  stability in SIF: essentially stable
[8]
  Minimal Inhibitory Concentration (MIC): >64 µg/mL
[9]; C. difficile 027C
  MIC: 1 µg/mL (≈ 0.517 µM)
[9]; C. difficile 027SM
  MIC: 1 µg/mL (≈ 0.517 µM)
[9]; C. difficile 19126
  MIC: 2 µg/mL (≈ 1.03 µM)
[9]; C. difficile 37779
  MIC: 2 µg/mL (≈ 1.03 µM)
[9]; C. difficile B32
  MIC: 2 µg/mL (≈ 1.03 µM)
[9]; C. difficile E4
  MIC: 1 µg/mL (≈ 0.517 µM)
[9]; C. difficile E16
  MIC: 2 µg/mL (≈ 1.03 µM)
[9]; C. difficile E101
  MIC: 2 µg/mL (≈ 1.03 µM)
[9]; C. difficile P24
  MIC: 2 µg/mL (≈ 1.03 µM)
[9]; C. difficile P49
  MIC: 1 µg/mL (≈ 0.517 µM)
[9]; C. difficile P59
  MIC: 1 µg/mL (≈ 0.517 µM)
[9]; C. difficile P62
  MIC: 1 µg/mL (≈ 0.517 µM)
[10]
  MIC: 8 µg/mL (≈ 4.14 µM)
[11]
  Minimal Inhibitory Concentration (MIC): >64 µg/mL
[12]; S. mitis 1 7722543
  MIC: 4 µg/mL (≈ 2.07 µM)
[12]; S. mitis 1 7863547
  MIC: 4 µg/mL (≈ 2.07 µM)
[12]; S. mitis GRL05062
  MIC: 8 µg/mL (≈ 4.14 µM)
[12]; S. mitis GRL05067
  MIC: 16 µg/mL (≈ 8.28 µM)
[13]
  MIC: 4 µg/mL (≈ 2.07 µM)
[14]
  MIC: 1 µg/mL (≈ 0.517 µM)

Source: patent US8329644B2, “Lantibiotic-based compounds having antimicrobial activity” (Novacta Biosystems Limited, priority 2007, dated 2012)
